Measurements as given in ChEMBL document CHEMBL1697781, “Assessment of the health effects of chemicals in humans: II. Construction of an adverse effects database for QSAR modeling” (Curr Drug Discov Technol, 2004).

Experiments:
Details in all cases: human; call rule not given here
[1] = test system: Hepatotoxicity; experiment: FDA HLAED, serum glutamic oxaloacetic transaminase (SGOT) increase
[2] = test system: Hepatotoxicity; experiment: FDA HLAED, serum glutamic pyruvic transaminase (SGPT) increase
[3] = test system: Hepatotoxicity; experiment: FDA HLAED, lactate dehydrogenase (LDH) increase
[4] = test system: Hepatotoxicity; experiment: FDA HLAED, alkaline phosphatase increase
[5] = test system: Hepatotoxicity; experiment: FDA HLAED, liver enzyme composite activity
[6] = test system: Hepatotoxicity; experiment: FDA HLAED, gamma-glutamyl transferase (GGT) increase
Wherever GGT Increase - Index Value is given: reference of the scale not given here.
Wherever LDH Increase - Index Value is given: reference of the scale not given here.

Row | Compound | SGOT Increase - Activity Score [1] | SGOT Increase - Index Value [1] | SGOT Increase - Number of Reports [1] | SGPT Increase - Activity Score [2] | SGPT Increase - Index Value [2] | SGPT Increase - Number of Reports [2] | LDH Increase - Activity Score [3] | LDH Increase - Index Value [3] | LDH Increase - Number of Reports [3] | Alkaline Phosphatase Increase - Activity Score [4] | Alkaline Phosphatase Increase - Index Value [4] | Alkaline Phosphatase Increase - Number of Reports [4] | Composite Activity - Active [5] | Composite Activity - Marginal [5] | Composite Activity - Score [5] | GGT Increase - Activity Score [6] | GGT Increase - Index Value [6] | GGT Increase - Number of Reports [6] | further results
1 | COc1ccc2[nH]c([S+]([O-])Cc3ncc(C)c(OC)c3C)nc2c1 (stereo unspecified) [OMEPRAZOLE] | Inactive | 1.2 | >= 4 | Inactive | 0.9 | >= 4 | Inactive | 0.5 | >= 4 | Inactive | 1.8 | >= 4 | 0 | 0 | Inactive | Inactive | 0.8 | >= 4 | –
2 | Cc1nccn1CC1CCc2c(c3ccccc3n2C)C1=O (stereo unspecified) [ONDANSETRON] | Inactive | 1.1 | >= 4 | Inactive | 1.3 | >= 4 | Inactive | 0.9 | >= 4 | Inactive | 0.5 | >= 4 | 0 | 0 | Inactive | Inactive | 0 | < 4 | –
3 | O=C(O)CCc1nc(-c2ccccc2)c(-c2ccccc2)o1 [OXAPROZIN] | Inactive | 0.9 | >= 4 | Inactive | 0.8 | >= 4 | Inactive | 0.4 | >= 4 | Inactive | 0.2 | < 4 | 0 | 0 | Inactive | Inactive | 0.4 | < 4 | –
4 | Clc1ccc(CO/N=C(\Cn2ccnc2)c2ccc(Cl)cc2Cl)c(Cl)c1 [OXICONAZOLE] | Inactive | 0 | < 4 | Inactive | 0 | < 4 | Inactive | 0 | < 4 | Inactive | 0 | < 4 | – | – | – | Inactive | 0 | < 4 | Composite Activity - Active ([5]; Liver): 0; Composite Activity - Marginal ([5]; Liver): 0; Composite Activity - Score ([5]; Liver): Inactive
5 | C[N+](C)(C)CCO.Cn1c(=O)c2[n-]cnc2n(C)c1=O [OXTRIPHYLLINE] | Inactive | 0 | < 4 | Inactive | 0 | < 4 | Inactive | 0 | < 4 | Inactive | 0 | < 4 | 0 | 0 | Inactive | Inactive | 0 | < 4 | –
6 | CC(=O)O[C@H]1C(=O)[C@@]2(C)[C@H]([C@H](OC(=O)c3ccccc3)[C@]3(O)C[C@H](OC(=O)[C@H](O)[C@@H](NC(=O)c4ccccc4)c4ccccc4)C(C)=C1C3(C)C)[C@]1(OC(C)=O)CO[C@@H]1C[C@@H]2O [PACLITAXEL] | Inactive | 2.5 | >= 4 | Inactive | 0.8 | < 4 | Inactive | 2.2 | >= 4 | Marginally Active | 3.7 | >= 4 | – | – | – | Inactive | 1.2 | >= 4 | Composite Activity - Active ([5]; Liver): 0; Composite Activity - Marginal ([5]; Liver): 1; Composite Activity - Score ([5]; Liver): Inactive
7 | NCCC(O)(P(=O)(O)O)P(=O)(O)O [PAMIDRONIC ACID] | Inactive | 4.1 | < 4 | Inactive | 4.1 | < 4 | Inactive | 4.1 | < 4 | Active | 16.6 | >= 4 | 2 | 0 | Active | Active | 12.4 | < 4 | –
8 | Fc1ccc([C@@H]2CCNC[C@H]2COc2ccc3c(c2)OCO3)cc1 [PAROXETINE] | Inactive | 1.2 | >= 4 | Inactive | 1 | >= 4 | Inactive | 0.4 | >= 4 | Inactive | 0.7 | >= 4 | 0 | 0 | Inactive | Inactive | 0.5 | >= 4 | –
9 | CC(C)(C)NC[C@H](O)COc1ccccc1C1CCCC1 [PENBUTOLOL] | Inactive | 0 | < 4 | Inactive | 0 | < 4 | Inactive | 0 | < 4 | Inactive | 0 | < 4 | 0 | 0 | Inactive | Inactive | 0 | < 4 | –
10 | Nc1nc2c(ncn2CCC(CO)CO)c(=O)[nH]1 [PENCICLOVIR] | Inactive | 0 | < 4 | Inactive | 0 | < 4 | Inactive | 0 | < 4 | Inactive | 0 | < 4 | 0 | 0 | Inactive | Inactive | 0 | < 4 | –
11 | N=C(N)c1ccc(OCCCCCOc2ccc(C(=N)N)cc2)cc1 [PENTAMIDINE] | Inactive | 5.7 | < 4 | Inactive | 5.7 | < 4 | Inactive | 5.7 | < 4 | Inactive | 11.5 | < 4 | 0 | 0 | Inactive | Inactive | 0 | < 4 | –
12 | OC[C@H]1O[C@@H](n2cnc3c2NC=NC[C@H]3O)C[C@@H]1O [PENTOSTATIN] | Inactive | 0 | < 4 | Inactive | 0 | < 4 | Inactive | 0 | < 4 | Inactive | 0 | < 4 | 0 | 0 | Inactive | Inactive | 0 | < 4 | –
